{"source": "patent US9968636B2", "about": "“Peritoneal dialysis fluid comprising a GSK-3 inhibitor” (ZYTOPROTEC GMBH, priority 2011, dated 2018)", "key": {"[1]": {"system": "heat shock factor-1 (HSF-1)", "experiment": "HSF-1 activity by Luciferase assay (heat shock element reporter)", "type": "cell-based, human", "conditions": "10 mM LiCl; control cells, glucose-based low pH high GDP and low pH icodextrin-based PD fluids; 30 min exposure, 6 h recovery; FIG. 4", "protocol": "PDF exposure model: confluent cultures on 12-well plates were exposed for the indicated times (30 min or 1 h) to the PD fluid solution or kept in parallel in control medium. […], whereas for measurements of LDH and HSP-72, p-GSK-3β Western blot analysis, cells were allowed to recover by incubation with normal culture medium containing 10% FBS for 16 h.\nTo determine the specific binding of the heat shock factor-1 (HSF-1), a commercially available Luciferase Reporter Vector (LR0038, Panomics, Italy) containing the heat shock element [5′[…]3′] as well as an empty control vector were transfected into the MeT-5a cells. 24 h prior to transfection, MC were seeded onto 96-well cell culture plates and allowed to reach approximately 80-90% confluence on day of transfection. Before transfection per well 0.15 μl Fugene6 (Roche) transfection reagent and 0.1 μl HSE reporter vector or control vector were each diluted with 5 μl of normal growth medium without FCS and incubated for 5 min. The solutions were mixed incubated for 30 min. Of this mix 10 μl were added to each well incubated for 24 h at 5% CO2 and 37° C. in a humidified atmosphere. […] The luciferase reagent (E1500, Promega) was added using an automatic pipette in 3 s intervals and the yielded signal was measured after 2 min using a luminometer plate reader (Flx800, BioTek)."}, "[2]": {"system": "human Met-5a cell line (mesothelial cells)", "experiment": "LDH release into the supernatant after PD fluid exposure", "type": "cell-based", "conditions": "for LDH levels: icodextrin-based fluid", "protocol": "(§1) The human Met-5a cell line was purchased from American Type Culture Collection (ATCC, Rockville, Md.). All cells were cultured in M199 culture medium supplemented with L-glutamine (0.1 g/L), penicillin (100 U/mL), streptomycin (100 μg/mL), 10% fetal bovine serum (FBS) and propagated at 37° C. in a humidified air containing 5% CO2 incubator. Standard chemicals were purchased from Sigma-Aldrich (St. Louis, Mo., USA) unless otherwise stated. Falcon™ tissue culture plastics (Becton Dickinson, Franklin Lakes, N.J., USA) were used for all cell culture procedures.\n(§2) PDF exposure model: confluent cultures on 12-well plates were exposed for the indicated times (30 min or 1 h) to the PD fluid solution or kept in parallel in control medium. For HSF-1 activity assay, cells were harvested and lysed immediately after exposure times, whereas for measurements of LDH and HSP-72, p-GSK-3β Western blot analysis, cells were allowed to recover by incubation with normal culture medium containing 10% FBS for 16 h.\nFor LDH analyses, 200 μL aliquots of supernatants were removed after the described experimental setup and kept on −20° C. until analyzed within 48 h. Measurements were performed in duplicates with Sigma TOX-7 LDH Kit according to the manufacturer's instructions. LDH efflux was normalized for protein content."}, "mesothelial cells": {"system": "mesothelial cells", "experiment": "Light microscopy and vital-dead (live-dead) staining of mesothelial cells", "type": "cell-based, human", "conditions": "LiCl, low pH glucose-based or icodextrin-based PD fluids, data not shown", "protocol": "as §2"}, "[3]": {"system": "human Met-5a cell line (mesothelial cells)", "experiment": "Cell viability by neutral red uptake after PD fluid exposure", "conditions": "10 mM LiCl; low pH glucose-based or icodextrin-based PD fluids; 1 h exposure, 16 h recovery; FIG. 3", "protocol": "as §1, §2\nTo assess cell viability by neutral red uptake, cells were seeded out to 96-well plates and exposed to different treatment protocols as described before. Neutral red uptake was measured using a standard reagent (Sigma-Aldrich, St. Louis, Mo., USA) according to the manufacturer's protocol."}, "[4]": {"system": "Heat shock protein-72 (HSP-72)", "experiment": "HSP-72 expression by Western blot", "type": "cell-based, human", "protocol": "as §2\nFor western blotting, protein content is determined by the Bradford assay (Biorad, Vienna, Austria) and equal amounts of protein samples (2 μg/lane) are separated by standard SDS-PAGE using a Pharmacia Multiphore II unit. Size-fractionated proteins are then transferred to PVDF membranes by semi-dry transfer in a Pharmacia Multiphore II Novablot unit. Membranes are blocked in 5% dry milk in TBS-Tween (10 mM Tris, 150 mM NaCl, 0.05% Tween 20, pH 7.4). Membranes are incubated with the respective primary antibody (HSP-72, p-GSK-3β) for 16 h. Detection is accomplished by incubation with secondary, peroxidase-coupled antibodies (anti-mouse or anti-rabbit IgG, both Dako Cytomation, Calif., USA) and enhanced chemiluminescence (ECL) using the ECL western blotting analysis system (Renaissance, NEN-Life Science Products, Boston, Mass., USA)."}}, "note": "Entries after “also recorded” stand apart in the source; their conditions may differ."}
{"smiles": "[Cl-].[Li+]", "note": "[LiCl, Lithium-chloride]", "values": [{"measurement": "HSF-1 transcriptional activity", "setting": "[1]", "result": "significantly increased"}, {"measurement": "LDH release (cell injury)", "setting": "[2]; 10 mM LiCl added, all PD fluids observed, 1 h exposure, 16 h recovery, vs no LiCl, FIG. 2", "result": "decreased LDH release; also recorded: attenuated LDH release"}, {"measurement": "protection (LDH release)", "setting": "[2]; 10 mM LiCl, incubation with low pH glucose-based and icodextrin-based solutions, FIG. 2", "result": "most prominent protection"}, {"measurement": "LDH levels", "setting": "[2]; 1 mM LiCl, FIG. 6", "result": "did not change significantly"}, {"measurement": "LDH levels", "setting": "[2]; 2 mM LiCl, FIG. 6", "result": "already decreased"}, {"measurement": "LDH levels", "setting": "[2]; 5 mM LiCl, FIG. 6", "result": "the decrease was even more significant"}, {"measurement": "LDH levels", "setting": "[2]; 10 mM LiCl, FIG. 6", "result": "the decrease was even more significant"}, {"measurement": "LDH release", "setting": "[2]; low pH glucose-based (PDF) fluid, 10 mM LiCl, FIG. 6", "result": "significantly reduced"}, {"measurement": "release of LDH into the supernatant", "setting": "[2]; low pH glucose-based (PDF) fluid, LiCl 1 mM to 5 mM, FIG. 6", "result": "did not alter"}, {"measurement": "cell structure", "setting": "mesothelial cells", "result": "preserved cell structure"}, {"measurement": "rate of dead cells", "setting": "mesothelial cells; live-dead staining", "result": "reduced cell death rate; also recorded: reduced rate of dead cells"}, {"measurement": "number of viable cells (neutral red uptake)", "setting": "[3]", "result": "improved cell viability; also recorded: increased number of viable cells"}, {"measurement": "level of HSP-72", "setting": "[4]; 10 mM LiCl, each incubation setting (glucose-based or icodextrin-based PD fluid, 30 min or 1 h) vs respective untreated cells, FIG. 5", "result": "significantly increased"}, {"measurement": "HSP-72 expression", "setting": "[4]; glucose-based low pH PDF, LiCl 1, 2, 5, 10 mM vs untreated cells, 30 min exposure, 16 h recovery, FIG. 8", "result": "increased only after administration of either 2 mM or 10 mM LiCl"}, {"measurement": "HSP-72 protein expression", "setting": "[4]; icodextrin-based PD fluid, LiCl 1, 2, 5, 10 mM, 30 min exposure, 16 h recovery, FIG. 8", "result": "all the applied LiCl doses increased"}]}
